Legend:
Chinese hamster cells = details: long exposure times; cited from earlier work
[1] = cited from earlier work
[2] = Case studies, oral minoxidil in male patients with androgenetic alopecia (blood pressure, heart rate, hair growth); details: person
rats = details: two-year study, oral administration; cited from earlier work
[3] = cited from earlier work; remark: listed apart in the source
human lymphocytes = details: cited from earlier work
rat bone marrow = details: in vivo; cited from earlier work
mouse bone marrow = details: in vivo; cited from earlier work
[4] = hypertensive patients; intravenous infusion; cited from earlier work
mice = details: dietary up to 2 years, cited from earlier work
rat hepatocyte = details: cited from earlier work

## Nc1cc(N2CCCCC2)nc(N)[n+]1[O-] [minoxidil]
Chinese hamster cells
  cytogenetic assay result: equivocal
[1]; chronic therapy for severe hypertension, initially
  temporary decrease in hematocrit, hemoglobin, and erythrocyte count: approximately 7%
[1]; soon after starting therapy
  patients exhibiting ECG alterations of T waves: approximately 60%
[2]; 0.625 mg four times a day
  adverse events: No unwanted hair growth or other adverse events were noticed
  reductions in blood pressure: did not experience significant reductions in blood pressure
[2]; 1.25 mg QID
  adverse events: No unwanted hair growth or other adverse events, including any cardiac effects, were noticed
rats
  carcinogenicity findings: no positive findings
[3]; normotensive healthy volunteers, 2.5 mg, 5 mg, or 10 mg oral
  effect on blood pressure: little effect on blood pressure
[3]; primarily conjugation with glucuronic acid
  fraction of oral dose metabolized: About 90%
Human lymphocytes
  cytogenetic assay result: negative
Rat bone marrow
  mutagenicity: not mutagenic
Mouse bone marrow
  mutagenicity: not mutagenic
[4]
  steady state plasma concentration associated with significant (>5 beats per minute) changes in heart rate: above 20 ng/mL
mice; females, all dose levels (10, 25, and 63 mg/kg/day)
  incidence of malignant lymphomas: increased incidence of malignant lymphomas in females
mice; males, 63 mg/kg/day
  incidence of hepatic nodules: increased incidence of hepatic nodules in males
Rat hepatocyte
  mutagenicity: not mutagenic

— US20260053800A1 (Veradermics, Incorporated, priority 2024, published 2026)
